Test results as given in patent publication US8648115B2 (priority 2009, dated 2014).
Several values for one entry are separate records, joined by “and”; a condition that tells them apart may be missing. Equal values may be shown once. Read-outs that look alike come from different tables or passages of the source.

Assays:
Phytophthora infestans [1] = experiment: microbe, parasite or virus in culture; format: cell-based
Phytophthora infestans [2] = experiment: microbe, parasite or virus in culture; format: cell-based; settings: for IC50: Phytophthora infestans, read-out: Phytophtora infestans (mycelial growth) IC 50
Phytophthora infestans [3] = format: in vivo; settings: 3 days after inoculation
[4] = tested on: Potato plants (Solanum tuberosum L. cv. Désirée); settings: in vivo
Colletotrichum coccodes = Colletotrichum coccodes mycelial growth bioassay (OD590); format: cell-based
Method: FIG. 6: Inhibitory effect of (E)-4-oxohexadec-2-enoic acid on the mycelial growth of Colletotrichum coccodes. One-day old mycelium in 96-well plates was inoculated with different (E)-4-oxohexadec-2-enoic acid concentrations. The growth of C. coccodes was determined by measuring the OD590. The experiment was repeated twice, with identical results.
C. coccodes (CBS369.75) was grown for five days in 50 ml of liquid soybean medium in the dark at 18° C. on a rotary shaker. In order to isolate spores, all of the culture was centrifuged for 5 min at 2100 g and 4° C. The supernatant, which contained the spores, was recentrifuged (10 min, 6500 g, 4° C.). After the supernatant had been decantered off, the pelleted spores were washed carefully in deionized water, centrifuged as above and finally the spore concentration was adjusted to 1×10^5 spores/ml in soybean medium. To carry out the biotest, 200 μl of this spore solution were pipetted into each well of a 96-well plate (Nunc A/S, Denmark). The plates were incubated in an incubator for 24 h at 17° C. in the dark to allow germination. Then, test concentrations of (E)-4-oxohexadec-2-enoic acid were pipetted in as described above, with final concentrations of from 0.01 μM to 100 μM and 2% (v/v) ethanol. The plates were returned into the incubator and the increase in fungal biomass was determined by daily OD590 measurements.
To determine whether (E)-4-oxohexadec-2-enoic acid also has an inhibitory effect on the ascomycete c. coccodes, the causative organism of, inter alia, black dot disease of potato, a multiwell bioassay was set up. The growth of the fungus in liquid medium was determined on the basis of the measurement of the optical density (OD590). A medium containing soya was used for this purpose. One-day old mycelium was inoculated together with various concentrations of (E)-4-oxohexadec-2-enoic acid, and the growth of C. coccodes was determined every 24 h. […] Increasing concentrations reduced the fungal growth even further.

Phytophthora infestans [5] = format: cell-based; settings: lower concentrations (1-100 μM drops); three-week old mycelium; 24 h
[6] = Phytophthora infestans, read-out: Phytophthora infestans (spore germination) IC 50, spore germination
[7] = read-out: Phytophthora infestans (spore germination) IC 50, spore germination

O=C(O)/C=C/C(=O)CCCCCCCCCCF
IC50 (Phytophthora infestans [1]; [6]): 70 nM and 0.018 µg/mL | IC50 (Phytophthora infestans [2]): 80 µM and 20.7 µg/mL

CCCCCCCCCCCCCCCCCCC(=O)/C=C/C(=O)O
IC50 (Phytophthora infestans [1]; [6]): 100 nM and 0.035 µg/mL

CCCCCCCCCCCCC(=O)/C=C/C(=O)[O-].[Na+] [sodium (E)-4-oxohexadec-2-enoate, Sodium (E)-4-oxohexadec-2-enoate]
Inhibition of infection with P. infestans compared with untreated control plants (Phytophthora infestans [3]; 10 μM spray 2 h before inoculation): 80% | Inhibition of infection with P. infestans compared with untreated control plants (Phytophthora infestans [3]; 100 μM spray 2 h before inoculation): 95% | Toxic effects on the leaves [4]: no toxic effects on the leaves

CCCCCCCCCCCCC(=O)/C=C/C(=O)O [(E)-4-oxohexadec-2-enoic acid]
Growth of C. coccodes (Colletotrichum coccodes; 0.01 μM): significant inhibitory effect | Inhibition of growth of C. coccodes compared with the ethanol control (Colletotrichum coccodes; 1 μM): more than half | Growth of C. coccodes (Colletotrichum coccodes; 100 μM): complete inhibition | Spore germination (Phytophthora infestans [1]; 10 nM, 24 h): reduced | Reduction of spore germination compared with the ethanol control (Phytophthora infestans [1]; 100 nM, 24 h): more than 50% | Spores germinated (Phytophthora infestans [1]; 1 μM, 24 h): < 10% | Spore germination (Phytophthora infestans [1]; 3.7 μM, 24 h): prevented completely | Spore lysis (Phytophthora infestans [1]; 100 μM): spore lysis was observed | Length of the germination tubes (Phytophthora infestans [1]; increasing concentrations): had an effect on the length of the germination tubes | Viability of mature mycelium (Phytophthora infestans [5]): clear negative effect on mycelia viability | Mycelial growth (GFP fluorescence) (Phytophthora infestans [2]; 1 mM, one-day old mycelium): growth was inhibited

CCCCCC(=O)/C=C/C(=O)O [drawing 6]
IC50 (Phytophthora infestans [1]; [6]): 0.014 µM

CCCCCC(=O)/C=C/C(=O)O [drawing 5]
IC50 (Phytophthora infestans [1]; [6]): 0.002 µg/mL | IC50 (Phytophthora infestans [1]; [7]): 0.012 µM

CCCCCCCCCCCCC(=O)/C=C/C(=O)O [drawing 8]
IC50 (Phytophthora infestans [1]; [6]): 70 nM and 0.0018 µg/mL | IC50 (Phytophthora infestans [2]): 450 µM and 121 µg/mL

CCCC(=O)/C=C/C(=O)O
IC50 (Phytophthora infestans [1]; [6]): 14 nM and 0.0019 µg/mL

CCCCCCCCCCCCC(=O)/C=C/C(=O)[O-].[K+] [drawing 9]
IC50 (Phytophthora infestans [1]; [6]): 0.018 µg/mL | IC50 (Phytophthora infestans [1]; [7]): 0.06 µM
